The source of these data is patent publication US9161894B2, “Use of N-(4-methoxyphenyl)-1-phenyl-1H-pyrazol-3-amine and related compounds” (NPHARMAKON, LLC, priority 2011, dated 2015).

For data set [1], the target named is prostaglandin synthetase (PGS). The following applies: in vitro assays; cited from earlier work.
Data set [2] has as its system PGS in intact RBL-1 cells. The following applies: cited from earlier work.
Data set [3] has as its target T1, 5-LO in intact RBL-1 cells (Rattus norvegicus, UniProt P12527).
T1 construct: endogenous in cells; host or cells: RBL-1 cells
T1 sequence (P12527 1-673): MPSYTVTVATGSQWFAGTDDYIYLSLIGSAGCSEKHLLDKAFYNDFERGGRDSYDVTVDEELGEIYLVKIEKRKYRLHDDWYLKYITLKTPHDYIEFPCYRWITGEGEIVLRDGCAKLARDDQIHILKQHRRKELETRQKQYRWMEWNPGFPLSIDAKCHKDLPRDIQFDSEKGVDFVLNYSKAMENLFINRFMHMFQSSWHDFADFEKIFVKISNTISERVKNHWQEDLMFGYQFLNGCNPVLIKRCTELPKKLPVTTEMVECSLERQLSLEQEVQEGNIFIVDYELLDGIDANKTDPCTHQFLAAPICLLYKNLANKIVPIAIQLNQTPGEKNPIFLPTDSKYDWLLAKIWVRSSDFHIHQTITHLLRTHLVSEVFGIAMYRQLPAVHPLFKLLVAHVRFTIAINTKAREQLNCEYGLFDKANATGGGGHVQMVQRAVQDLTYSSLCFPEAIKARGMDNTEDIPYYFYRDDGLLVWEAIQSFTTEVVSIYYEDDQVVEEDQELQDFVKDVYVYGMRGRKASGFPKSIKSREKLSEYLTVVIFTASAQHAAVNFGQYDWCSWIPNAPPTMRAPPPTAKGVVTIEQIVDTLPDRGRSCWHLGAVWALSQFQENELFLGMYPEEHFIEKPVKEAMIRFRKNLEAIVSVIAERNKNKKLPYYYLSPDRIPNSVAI
Conditions: cited from earlier work.

The test system of data set [4] is immune-complex-induced peritoneal inflammation. Conditions: mouse, intraperitoneal, fine suspension in saline; cited from earlier work.
Data set [5] has as its system darker human skin (pigmentation). Kind of data set: Single-blind pilot clinical study of skin lightening on darker human skin. Conditions: day 29 / end of study, significance at p<0.05. It is filed as in vivo. As to the method:
The study protocol and informed consent form were reviewed and approved by the Guangzhou Institutional Review Board (Guangzhou, China) prior to the initiation of the study. […]
The following test formulations were prepared and pH of each formulation was measured, as shown below. […]
Lower back of each subject was used as the test area. Five identically sized application sites (square 3 cm by 3 cm) were marked on the skin of each subject and labeled A through E. 0.1 gram of each material, as measured by extrusion from a syringe, was applied on the appropriate site, using a gloved finger, by a trained technician, guided by markings on the skin and the application site diagram. […]
L value (brightness) reading was taken in duplicate with the spectrophotometer CM-2600d (Konica Minolta, Osaka, Japan). The melanin (M) index reading was taken in duplicate with a Mexameter® MX18 (Courage & Khazaka, Cologne, Germany). […]
Statistical analysis was performed using the computer program SigmaStat 11 (Systat Software Inc., Chicago, Ill., USA) on a Microsoft Windows computer. For all data (Visual Scoring (VS), L value (brightness) (L), and MeIanin Index (M)), the baseline readings were subtracted prior to analysis. […]

The next data set deals with rabbit skin edema. Conditions: co-injected with arachidonic acid; cited from earlier work.
The next data set has as its target T2, Kit (human) (Homo sapiens, UniProt P10721).
T2 construct: purchased EMD Millipore Corporation (KinaseProfiler service)
Kind of data set: Millipore KinaseProfiler radiometric-based filtration binding assay of Kit kinase. Conditions: biochemical assay, read-out: IC50 of Kit kinase inhibition (converted). How it is done: To characterize the inhibitory activity of FPL-62064 against Kit kinase, the drug was tested using Millipore KinaseProfiler radiometric-based filtration binding assay (EMD Millipore Corporation, Billerica, Mass.). In a final reaction volume of 25 μL, Kit (human) (5-10 mU) was incubated with 8 mM MOPS pH 7.0, 0.2 mM EDTA, 10 mM MnCl2, 0.1 mg/mL poly(Glu, Tyr) 4:1, 10 mM MgAcetate and 10 μM [γ^33P-ATP] (specific activity approx. 500 cpm/pmol). The reaction was initiated by the addition of the MgATP mix. After incubation for 40 minutes at room temperature, the reaction was stopped by the addition of 5 μL of a 3% phosphoric acid solution. 10 μL of the reaction was then spotted onto a Filtermat A and washed three times for 5 minutes in 75 mM phosphoric acid and once in methanol prior to drying and scintillation counting.

The subject of a further data set is carrageenin foot edema. Conditions: rats, oral route, doses up to 200 mg/kg; cited from earlier work.
Data set [6] concerns UV irradiation-induced erythema. Conditions: guinea pig; cited from earlier work.
Data set [7] addresses T3, Kit autophosphorylation in M07e cells (Homo sapiens, UniProt P10721).
T3 construct: expressing endogenously a high level of wild-type Kit; host or cells: M07e (human acute megakaryoblastic leukemia)
The experiment in a line: Cellular Kit phosphorylation assay (ProQinase sandwich ELISA) in M07e cells. The format is cell-based.
Method: The human acute megakaryoblastic leukemia cell line M07e expressing endogenously a high level of wild-type Kit was used in the cellular Kit phosphorylation assay. Stimulation of these cells with human Kit ligand results in receptor tyrosine autophosphorylation. M07e cells were plated in RPMI supplemented with 20% FCS and 10 ng/ml GM-CSF in multiwell cell culture plates. After serum- and growth factor-starvation overnight, cells were incubated with test compounds in serum-free medium. Pre-diluted test samples were added 1:100 to the cell culture medium resulting in a final DMSO concentration of 1%. After 90 minute incubation at 37° C., cells were stimulated with 100 ng/ml Kit ligand for 3 minutes. Cells treated with staurosporine were defined as Low control, and cells treated with solvent alone were defined as High control. Test sample-treated cells, as well as High and Low control, were stimulated in identical manner. Quantification of substrate phosphorylation was assessed in 96 well plates via sandwich ELISA using a substrate specific capture antibody and an anti-phosphotyrosine detection antibody. Raw data were converted into percent substrate phosphorylation relative to High control, set to 100%. […] The equation is a four-parameter logistic equation.

Another data set has as its system human skin. The experiment in a line: Safety and adverse events at application sites in the pilot clinical study. The following applies: topical twice daily, any time point during the study. The format is in vivo. As to the method: Lower back of each subject was used as the test area. Five identically sized application sites (square 3 cm by 3 cm) were marked on the skin of each subject and labeled A through E. 0.1 gram of each material, as measured by extrusion from a syringe, was applied on the appropriate site, using a gloved finger, by a trained technician, guided by markings on the skin and the application site diagram. The application was carried out in an accredited outpatient facility twice daily (morning and afternoon/evening), 6 days per week (with no treatments on Sunday). The procedure was continued in the same manner for the duration of the study. Subjects 2, 3 and 4 entered the study on day 1 (Friday) and each received 48 treatments (no subject missed any of the treatments). Subjects 8, 9, and 10 entered the study on day 4 (Monday) and each received 44 treatments. No subject missed any of the treatments.
In all cases, the condition of the sites treated with Formulation E improved upon termination of the treatment.

The conditions of data set [8]: cited from earlier work.
The subject of data set [9] is arachidonic acid-induced ear edema. The following applies: mouse ear; cited from earlier work.
The next data set has as its target T4, 5-lipoxygenase (5-LO) (Homo sapiens, UniProt P09917).
T4 sequence (P09917 1-674): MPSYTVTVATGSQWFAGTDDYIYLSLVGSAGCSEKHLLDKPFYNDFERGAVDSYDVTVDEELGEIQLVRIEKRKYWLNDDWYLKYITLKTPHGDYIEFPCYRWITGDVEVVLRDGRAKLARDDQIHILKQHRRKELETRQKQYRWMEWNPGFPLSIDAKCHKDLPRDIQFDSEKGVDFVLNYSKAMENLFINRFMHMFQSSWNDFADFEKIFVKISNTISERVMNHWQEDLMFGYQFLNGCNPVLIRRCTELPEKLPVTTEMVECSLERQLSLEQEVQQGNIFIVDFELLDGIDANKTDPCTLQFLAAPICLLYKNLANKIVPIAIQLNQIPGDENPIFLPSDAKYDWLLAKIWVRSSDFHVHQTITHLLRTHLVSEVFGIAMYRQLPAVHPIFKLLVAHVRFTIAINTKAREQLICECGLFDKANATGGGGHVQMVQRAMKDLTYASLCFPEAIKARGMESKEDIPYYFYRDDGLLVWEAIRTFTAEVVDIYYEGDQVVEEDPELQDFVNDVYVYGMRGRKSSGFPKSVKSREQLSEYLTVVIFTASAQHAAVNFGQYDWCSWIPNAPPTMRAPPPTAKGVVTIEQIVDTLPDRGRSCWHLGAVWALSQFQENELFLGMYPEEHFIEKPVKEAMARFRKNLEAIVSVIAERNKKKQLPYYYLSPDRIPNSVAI
The following applies: in vitro assays; cited from earlier work.

The conditions of data set [10]: humans, preliminary data; cited from earlier work.

“And” between values parts separate entries of the source, which are not always exact repeats. Equal values may be shown once. Read-outs that look alike come from different tables or passages of the source.

T2 sequence (P10721 26-976): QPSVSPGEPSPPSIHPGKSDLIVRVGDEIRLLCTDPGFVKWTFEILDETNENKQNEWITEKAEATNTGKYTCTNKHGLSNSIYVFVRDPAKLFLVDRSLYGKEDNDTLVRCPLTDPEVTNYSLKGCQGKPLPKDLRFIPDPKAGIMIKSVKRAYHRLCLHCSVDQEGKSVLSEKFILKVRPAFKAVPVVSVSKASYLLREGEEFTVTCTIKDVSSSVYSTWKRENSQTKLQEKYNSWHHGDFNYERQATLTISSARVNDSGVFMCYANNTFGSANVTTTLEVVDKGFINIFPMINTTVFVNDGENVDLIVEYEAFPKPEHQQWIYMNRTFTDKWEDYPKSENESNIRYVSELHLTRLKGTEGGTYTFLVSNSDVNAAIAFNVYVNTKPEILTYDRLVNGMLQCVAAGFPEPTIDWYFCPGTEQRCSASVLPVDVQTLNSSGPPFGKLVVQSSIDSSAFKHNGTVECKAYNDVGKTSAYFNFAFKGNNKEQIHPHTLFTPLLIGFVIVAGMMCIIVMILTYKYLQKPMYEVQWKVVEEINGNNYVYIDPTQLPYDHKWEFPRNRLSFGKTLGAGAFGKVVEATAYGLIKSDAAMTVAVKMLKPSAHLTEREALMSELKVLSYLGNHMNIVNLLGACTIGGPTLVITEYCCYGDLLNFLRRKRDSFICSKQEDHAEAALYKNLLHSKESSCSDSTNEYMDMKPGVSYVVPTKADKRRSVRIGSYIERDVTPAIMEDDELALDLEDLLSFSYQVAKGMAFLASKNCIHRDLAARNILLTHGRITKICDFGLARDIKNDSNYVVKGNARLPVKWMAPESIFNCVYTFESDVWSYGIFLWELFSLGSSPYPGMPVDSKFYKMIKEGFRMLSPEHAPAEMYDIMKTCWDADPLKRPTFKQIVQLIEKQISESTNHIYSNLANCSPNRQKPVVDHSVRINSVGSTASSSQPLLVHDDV
T3 sequence (P10721 26-976): as above
T3 sequence (P21583 26-190 partner limits assumed): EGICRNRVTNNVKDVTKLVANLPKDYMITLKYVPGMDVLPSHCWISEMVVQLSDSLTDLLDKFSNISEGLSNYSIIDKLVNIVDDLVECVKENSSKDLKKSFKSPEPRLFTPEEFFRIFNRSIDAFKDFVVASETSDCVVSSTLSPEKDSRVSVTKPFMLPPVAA

In general, IC50 refers to the concentration that inhibits the measured activity by half. Take `COc1ccc(Nc2ccn(-c3ccccc3)n2)cc1` [FPL-62064, N-(4-methoxyphenyl)-1-phenyl-1H-pyrazol-3-amine]: the IC50 is 3.1 µM in data set [1]; 3.6 µM in data set [2]; 31 µM in data set [3]; 6.9 µM and 6.89 µM at Kit (human) (10 μM ATP); 7.54 µM at Kit (human) (same value in mass units); 1.2 µM in data set [7] (90 min incubation, 100 ng/ml Kit ligand). Moreover, the IC50 in [7] (same value in mass units) was 1.13 µM; at 5-lipoxygenase (5-LO), 3.5 to 11.5 µM. Further, in [4], the “activity against immune-complex-induced peritoneal inflammation” value is reported as “demonstrated local activity”. For the same molecule, the “change of the melanin index (M) from baseline compared to the control site (Formulation D, vehicle)” value in [5] is recorded as “statistically significant decrease”. In addition, the “edema and eicosanoid formation” value with rabbit skin edema is “inhibited”. The “activity against carrageenin foot edema” value in the data set on carrageenin foot edema was “inactive”. Further, the “UV irradiation-induced erythema and prostaglandin E2 formation” value in data set [6] was “inhibited”. In addition, in the data set on human skin, the “adverse events, sensitivity or irritation at treated sites” value is given as “well tolerated”. The topical bioavailability result in [8] (topical) is given as “topically bioavailable”. The metabolism result in data set [8] (upon intravenous administration) was “rapidly and extensively metabolized”. The “edema formation and eicosanoid production induced by arachidonic acid” value in [9] is reported as “inhibited”. The “safety and tolerability of topical application” value in [10] was “safe and well tolerated”.
